{
  "source": "patent US6773627B2",
  "about": "“Cubic liquid crystalline compositions and methods for their preparation” (Children's Hospital Research Foundation, priority 2000, dated 2004)",
  "assay": "Determination of hydrotrope utility (polarized light microscopy and rheology of compound/water/monoolein compositions)",
  "assay_type": "physicochemical",
  "settings": "for Formation of cubic phase in equilibrium with liquid water: system of compound, monoolein and water",
  "description": "Whether a compound is suitable to use as ingredient (A) can be determined by one skilled in the art without undue experimentation. The determination can be made by preparing a composition comprising the compound to be tested for use as the hydrotrope, the selected amphiphile, and the selected solvent and allowing the composition to equilibrate, for example, by the method described below in Reference Example 1. If the composition forms a cubic phase or cubic phase in combination with another phase, then the hydrotrope is suitable to use in this invention. If the composition forms a cubic phase or cubic phase in combination with an isotropic liquid, then the hydrotrope is preferred.\nPolarized light microscopy (PLM) can be used to determine whether the composition formed cubic phase. PLM can be carried out on a polarized light microscope or constructed light box, as described by Laughlin, R. G., J. Colloid Interface Sci., 55, 239-242 (1976). Polarized light microscope textures define the phase/colloidal state of sample. Lamellar and hexagonal phases give birefringence (see Hecht, E., Optics, 2nd ed., Addison-Wesley Publishing Co., Reading, Mass., pp. 282-289 (1984)) and distinct textures such as Maltese Crosses (see Rosevear, F. B., J. Am. Oil Chemists Soc., 31, 628-638 (1954)). This is a consequence of the anisotropic phase structure of these particular phases, and their orientation relative to polarization of the light. However, L1, L2, L3, and cubic phases show no birefringence and appear dark in the microscope. Birefringence is a function of sample thickness, so sometimes it is difficult to see with a light microscope. Instead, the bulk sample can be placed in the aforementioned light box to secure a very thick sample.\nCubic phases are very viscous while the other phases are (i.e., L1, L2, and L3) are less viscous, like water. Therefore, lack of birefringence in combination with bulk solid-like rheological properties indicates the presence of cubic phase.\nA compound for use as a hydrotrope is dissolved in water in amounts to form a hydrotrope solution. The solution is added to monoolein (DIMODAN® MO90K) to yield a composition. The composition is left to equilibrate overnight at a temperature of 25 to 30° C.\nPLM can be carried out on a polarized light microscope or constructed light box, as described by Laughlin, R. G., J. Colloid Interface Sci., 55, 239-242 (1976). Rheological properties of the composition are also observed.\nVarious compounds are evaluated according to Reference Example 1. The compounds, the compositions prepared, and the results are in Table E1, below. FIG. 4 is a ternary diagram 400 showing the data points in Example 3. FIG. 5 is a ternary diagram 500 for 1,2-hexanediol 516, monoolein 517, and water 518. […] FIG. 6 is a ternary diagram 600 for 1,2-hexanediol 613, monoolein 614, and water 615. […] FIG. 7 is a ternary diagram 700 for ethanol 713, monoolein 714, and water 715.",
  "key": {"[1]": {"settings": "system with monoolein and water"}, "[2]": {"settings": "compound 10, water 80, amphiphile (monoolein) 10 (κ)"}},
  "note": "Entries after “also recorded” stand apart in the source; their conditions may differ.",
  "data": [
    {"smiles": "CCCCC(O)CO", "note": "(stereo not shown) [1,2-hexanediol]", "values": [
      {"measurement": "Phase(s) Formed", "setting": "FIG. 5 point 501, compound 10, water 81, amphiphile (monoolein) 9 (κ)", "result": "liquid water and L1"},
      {"measurement": "Phase(s) Formed", "setting": "FIG. 5 point 502, compound 10, water 71, amphiphile (monoolein) 19 (κ)", "result": "L1 and lamellar"},
      {"measurement": "Phase(s) Formed", "setting": "FIG. 5 point 503, compound 10, water 64, amphiphile (monoolein) 26 (κ)", "result": "L1 and lamellar"},
      {"measurement": "Phase(s) Formed", "setting": "FIG. 5 point 504, compound 12, water 53, amphiphile (monoolein) 35 (κ)", "result": "L1 and lamellar"},
      {"measurement": "Phase(s) Formed", "setting": "FIG. 5 point 505, compound 10, water 45, amphiphile (monoolein) 45 (κ)", "result": "L1 and lamellar"},
      {"measurement": "Phase(s) Formed", "setting": "FIG. 5 point 510, compound 20, water 40, amphiphile (monoolein) 40 (κ)", "result": "L1 and lamellar"},
      {"measurement": "Phase(s) Formed", "setting": "FIG. 6 point 601, compound 6, water 56, amphiphile (monoolein) 38 (κ)", "result": "cubic and lamellar"},
      {"measurement": "Phase(s) Formed", "setting": "FIG. 6 point 602, compound 4, water 58, amphiphile (monoolein) 38 (κ)", "result": "cubic and lamellar"},
      {"measurement": "Phase(s) Formed", "setting": "FIG. 6 point 603, compound 2, water 59, amphiphile (monoolein) 39 (κ)", "result": "cubic and lamellar"},
      {"measurement": "Phase(s) Formed", "setting": "FIG. 6 point 604, compound 6, water 38, amphiphile (monoolein) 56 (κ)", "result": "cubic and lamellar"},
      {"measurement": "Phase(s) Formed", "setting": "FIG. 6 point 605, compound 4, water 39, amphiphile (monoolein) 57 (κ)", "result": "cubic and lamellar"},
      {"measurement": "Phase(s) Formed", "setting": "FIG. 6 point 606, compound 2, water 39, amphiphile (monoolein) 59 (κ)", "result": "cubic and lamellar"},
      {"measurement": "Phase(s) Formed", "setting": "FIG. 6 point 607, compound 6, water 28, amphiphile (monoolein) 66 (κ)", "result": "cubic and lamellar"},
      {"measurement": "Phase(s) Formed", "setting": "FIG. 6 point 608, compound 2, water 29, amphiphile (monoolein) 69 (κ)", "result": "cubic and lamellar"},
      {"measurement": "Phase(s) Formed", "setting": "FIG. 6 point 609, compound 16, water 13, amphiphile (monoolein) 71 (κ)", "result": "lamellar"},
      {"measurement": "Phase(s) Formed", "setting": "FIG. 6 point 610, compound 10, water 14, amphiphile (monoolein) 76 (κ)", "result": "lamellar"},
      {"measurement": "Phase(s) Formed", "setting": "FIG. 6 point 611, compound 5, water 14, amphiphile (monoolein) 81 (κ)", "result": "lamellar"},
      {"measurement": "Phase(s) Formed", "setting": "FIG. 6 point 612, compound 5, water 12, amphiphile (monoolein) 83 (κ)", "result": "lamellar"},
      {"measurement": "Formation of cubic phase in equilibrium with liquid water", "result": "does not form cubic phase in equilibrium with liquid water"},
      {"measurement": "Suitability as hydrotrope", "setting": "[1]", "result": "suitable to use as a hydrotrope"}
    ]},
    {"smiles": "OCCCCO", "note": "[1,4-butanediol]", "values": [
      {"measurement": "Phase(s) Formed", "setting": "[2]", "result": "cubic and L1"},
      {"measurement": "Suitability as hydrotrope", "setting": "[1]", "result": "effective as hydrotropes"}
    ]},
    {"smiles": "CC(C)O", "note": "[Example 2-propanol, 2-propanol]", "values": [
      {"measurement": "Phase(s) Formed", "setting": "[2]", "result": "does not form cubic phase; also recorded: Turbid solution and L1"},
      {"measurement": "Suitability as hydrotrope", "setting": "[1]", "result": "not preferred to use as a hydrotrope"}
    ]},
    {"smiles": "CCO", "note": "[ethanol]", "values": [
      {"measurement": "Phase(s) Formed", "setting": "FIG. 4 point 401, compound 20, water 48, amphiphile (monoolein) 32 (κ)", "result": "L1 and lamellar"},
      {"measurement": "Phase(s) Formed", "setting": "FIG. 4 point 404, compound 9, water 55, amphiphile (monoolein) 36 (κ)", "result": "cubic and lamellar"},
      {"measurement": "Phase(s) Formed", "setting": "FIG. 4 point 405, compound 6, water 56, amphiphile (monoolein) 38 (κ)", "result": "cubic and lamellar"},
      {"measurement": "Phase(s) Formed", "setting": "FIG. 7 point 701, compound 11, water 88, amphiphile (monoolein) 1 (κ)", "result": "cubic & isotropic liquid"},
      {"measurement": "Phase(s) Formed", "setting": "FIG. 7 point 702, compound 10, water 70, amphiphile (monoolein) 20 (κ)", "result": "cubic & isotropic liquid"},
      {"measurement": "Phase(s) Formed", "setting": "FIG. 7 point 703, compound 10, water 59, amphiphile (monoolein) 31 (κ)", "result": "cubic & isotropic liquid"},
      {"measurement": "Phase(s) Formed", "setting": "FIG. 7 point 704, compound 10, water 48, amphiphile (monoolein) 42 (κ)", "result": "cubic & isotropic liquid"},
      {"measurement": "Phase(s) Formed", "setting": "FIG. 7 point 706, compound 20, water 55, amphiphile (monoolein) 25 (κ)", "result": "L1 and lamellar"},
      {"measurement": "Phase(s) Formed", "setting": "FIG. 7 point 707, compound 19, water 49, amphiphile (monoolein) 32 (κ)", "result": "L1 and lamellar"},
      {"measurement": "Phase(s) Formed", "setting": "FIG. 7 point 708, compound 20, water 42, amphiphile (monoolein) 39 (κ)", "result": "lamellar"},
      {"measurement": "Phase(s) Formed", "setting": "FIG. 7 point 709, compound 29, water 60, amphiphile (monoolein) 11 (κ)", "result": "L1 and lamellar"},
      {"measurement": "Phase(s) Formed", "setting": "FIG. 7 point 710, compound 28, water 52, amphiphile (monoolein) 20 (κ)", "result": "L1 and lamellar"},
      {"measurement": "Phase(s) Formed", "setting": "FIG. 7 point 711, compound 30, water 40, amphiphile (monoolein) 30 (κ)", "result": "lamellar"},
      {"measurement": "Phase(s) Formed", "setting": "FIG. 7 point 712, compound 30, water 29, amphiphile (monoolein) 41 (κ)", "result": "lamellar"},
      {"measurement": "Formation of cubic phase in equilibrium with liquid water", "result": "can be formed"},
      {"measurement": "Suitability as hydrotrope", "setting": "[1]", "result": "preferred hydrotrope"},
      {"measurement": "Amount of compound at which it can be used as a hydrotrope", "setting": "system with monoolein and water, % of the system", "result": "less than or equal to 10%"}
    ]},
    {"smiles": "CCN(CC)CCOC(=O)c1ccc(N)cc1.Cl", "note": "[procaine hydrogen chloride, reference compound]", "values": [
      {"measurement": "Phase(s) Formed", "setting": "[2]", "result": "cubic and L1"},
      {"measurement": "Suitability as hydrotrope", "setting": "[1]", "result": "effective as hydrotropes"}
    ]}
  ]
}
